Test results reported in ChEMBL document CHEMBL1201862, “PubChem BioAssay data set” (2004).
Active and inactive are the calls of the source.

Assays:
[1] = Counterscreen for antagonists of the orexin 1 receptor (OX1R; HCRTR1): Fluorescence-based cell-based high throughput dose response assay to identify antagonists of the parental CHO cell line. [Related pubchem assays (depositor defined):AID434989, AID435008, AID463079, AID485270, AID492963, AID492964, AID492965, AID493232, AID504699, AID504701]; format: functional
Orexin receptor type 2 [2] = target: T1, Orexin receptor type 2 (Homo sapiens, UniProt O43614); assay: Counterscreen assay for antagonists of the orexin 1 receptor (OX1R; HCRTR1): Homogeneous Time Resolved Fluorescence (HTRF)-based cell-based dose response assay for antagonists of the orexin 2 receptor (OX2R; HCRTR2), run by assay provider.; format: functional
T1 sequence (O43614 whole entry): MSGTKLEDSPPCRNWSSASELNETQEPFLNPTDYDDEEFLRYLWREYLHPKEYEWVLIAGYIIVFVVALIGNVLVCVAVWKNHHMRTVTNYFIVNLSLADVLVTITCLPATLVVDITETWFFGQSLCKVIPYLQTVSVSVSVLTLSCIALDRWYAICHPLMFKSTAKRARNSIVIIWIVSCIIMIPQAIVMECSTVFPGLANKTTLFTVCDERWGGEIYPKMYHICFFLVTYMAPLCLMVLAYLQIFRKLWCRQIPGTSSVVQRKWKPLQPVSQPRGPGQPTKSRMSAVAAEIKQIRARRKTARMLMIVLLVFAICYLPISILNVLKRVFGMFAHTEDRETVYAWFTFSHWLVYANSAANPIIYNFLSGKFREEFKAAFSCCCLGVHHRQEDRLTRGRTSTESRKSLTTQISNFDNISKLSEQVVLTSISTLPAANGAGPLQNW

Orexin receptor type 2 [3] = target: T1, Orexin receptor type 2; assay: Counterscreen assay for antagonists of the orexin 1 receptor (OX1R; HCRTR1): Fluorescence-based cell-based dose response assay for antagonists of the orexin 2 receptor (OX2R; HCRTR2), run by assay provider.; format: functional
CHO-K1 = assay: Counterscreen for antagonists of the orexin 1 receptor (OX1R; HCRTR1): Homogeneous time resolved fluorescence (HTRF)-based cell-based dose response assay to identify antagonists of the parental CHO-K1 cell line. [Related pubchem assays (depositor defined):AID434989, AID435008, AID463079, AID485270, AID492963, AID492964, AID492965, AID493232, AID504699, AID504701]; format: functional; details: Cricetulus griseus;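 note: potency for inhibition of ATP-stimulated IP1 production as antagonists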
[4] = target: T2, Orexin/Hypocretin receptor type 1 (Homo sapiens, UniProt O43613); assay: Fluorescence-based cell-based high throughput dose response assay for antagonists of the orexin 1 receptor (OX1R; HCRTR1). [Related pubchem assays (depositor defined):AID434989, AID435008, AID463079, AID485270, AID492963, AID492964, AID492965, AID493232, AID504717, AID504718]; format: functional
T2 sequence (O43613 whole entry): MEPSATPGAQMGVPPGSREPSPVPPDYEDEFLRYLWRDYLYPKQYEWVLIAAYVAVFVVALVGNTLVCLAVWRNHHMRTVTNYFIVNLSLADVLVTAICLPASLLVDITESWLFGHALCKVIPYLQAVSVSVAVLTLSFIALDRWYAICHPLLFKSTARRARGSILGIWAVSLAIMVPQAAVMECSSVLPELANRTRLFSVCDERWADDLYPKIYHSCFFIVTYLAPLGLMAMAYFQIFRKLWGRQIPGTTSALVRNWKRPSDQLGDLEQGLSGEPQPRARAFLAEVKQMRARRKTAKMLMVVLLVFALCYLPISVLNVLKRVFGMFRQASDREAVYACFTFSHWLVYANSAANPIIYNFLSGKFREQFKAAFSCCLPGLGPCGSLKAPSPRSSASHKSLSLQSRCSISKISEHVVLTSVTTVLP

[5] = target: T2, Orexin/Hypocretin receptor type 1; assay: Homogeneous Time Resolved Fluorescence (HTRF)-based cell-based high throughput dose response assay for antagonists of the orexin 1 receptor (OX1R; HCRTR1). [Related pubchem assays (depositor defined):AID434989, AID435008, AID463079, AID485270, AID492963, AID492964, AID492965, AID493232, AID504717, AID504718]; format: functional
Insulin-degrading enzyme [6] = target: T3, Insulin-degrading enzyme (Homo sapiens, UniProt P14735); assay: activators of endogenous IDE in HEK cells, dose response, cell-based, fluorescence polarization (AID 588439); format: functional
T3 sequence (P14735 whole entry): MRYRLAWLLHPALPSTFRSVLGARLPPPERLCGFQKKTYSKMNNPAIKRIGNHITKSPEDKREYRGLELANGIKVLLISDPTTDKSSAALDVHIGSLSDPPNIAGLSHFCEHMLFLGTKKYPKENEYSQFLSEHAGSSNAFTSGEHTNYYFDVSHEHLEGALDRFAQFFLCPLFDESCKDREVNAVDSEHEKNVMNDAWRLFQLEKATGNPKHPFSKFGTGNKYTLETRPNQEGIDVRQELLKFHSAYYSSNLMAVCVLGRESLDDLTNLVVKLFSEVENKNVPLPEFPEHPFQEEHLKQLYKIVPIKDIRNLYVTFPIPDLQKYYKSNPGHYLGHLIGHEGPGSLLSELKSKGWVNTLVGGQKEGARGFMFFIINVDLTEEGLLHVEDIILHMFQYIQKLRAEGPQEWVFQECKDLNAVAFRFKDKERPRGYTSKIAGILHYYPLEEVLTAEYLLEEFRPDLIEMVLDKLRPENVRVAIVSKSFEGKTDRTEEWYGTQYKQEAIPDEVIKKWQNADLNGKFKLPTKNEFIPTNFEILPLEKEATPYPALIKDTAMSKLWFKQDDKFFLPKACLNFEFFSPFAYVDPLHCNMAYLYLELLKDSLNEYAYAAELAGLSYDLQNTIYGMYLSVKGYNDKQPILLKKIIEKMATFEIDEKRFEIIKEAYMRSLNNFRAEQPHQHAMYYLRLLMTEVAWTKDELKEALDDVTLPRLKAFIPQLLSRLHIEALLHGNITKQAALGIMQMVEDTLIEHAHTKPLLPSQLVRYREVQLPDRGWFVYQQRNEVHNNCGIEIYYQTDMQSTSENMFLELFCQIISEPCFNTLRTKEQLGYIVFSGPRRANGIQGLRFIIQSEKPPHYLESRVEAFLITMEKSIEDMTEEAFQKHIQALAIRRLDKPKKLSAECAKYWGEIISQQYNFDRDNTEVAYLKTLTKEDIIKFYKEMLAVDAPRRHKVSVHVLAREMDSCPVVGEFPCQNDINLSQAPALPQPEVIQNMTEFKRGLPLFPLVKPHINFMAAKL

HEK293 [7] = assay: optical interference in Abeta FP readout, dose response, artefact control for IDE activator project, biochemical, fluorescence polarization (AID 588442); format: functional, cell-based; details: Homo sapiens
Insulin-degrading enzyme [8] = target: T3, Insulin-degrading enzyme; assay: activators of recombinant IDE enzyme, dose response, counter-screen for IDE activator project, biochemical, fluorescence polarization (AID 588681)
HEK293 [9] = assay: HEK cell cytotoxicity by LDH release, dose response, cytotoxicity control for IDE activator project, fluorescence, HEK cells (AID 588440); format: functional, cell-based; details: Homo sapiens;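 note: cytotoxicity by LDH release measuring loss of membrane integrity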
Prothrombin = Prothrombin (Bos taurus, UniProt P00735); assay: thrombin inhibition, dose response, biochemical, fluorescence polarization, uHTS hits (AID 602369); format: functional
[10] = target: 26S proteasome non-ATPase regulatory subunit 14 (Homo sapiens, UniProt O00487); assay: inhibition of proteasome subunit RPN11 – biochemical, fluorescence polarization, uHTS hits, confirmation (AID 602368); format: functional
[11] = target: 72 kDa type IV collagenase (Homo sapiens, UniProt P08253); assay: Dose Response validation of uHTS RPN11 inhibitor hits using a MMP-2 Fluorescence assay.; format: functional
[12] = target: T4, Zinc finger protein mex-5 (Caenorhabditis elegans, UniProt Q9XUB2); assay: MEX-5/TCR-2 RNA interaction inhibitors, dose response, biochemical, C. elegans, fluorescence polarization (AID 1960)
T4 sequence (Q9XUB2 whole entry): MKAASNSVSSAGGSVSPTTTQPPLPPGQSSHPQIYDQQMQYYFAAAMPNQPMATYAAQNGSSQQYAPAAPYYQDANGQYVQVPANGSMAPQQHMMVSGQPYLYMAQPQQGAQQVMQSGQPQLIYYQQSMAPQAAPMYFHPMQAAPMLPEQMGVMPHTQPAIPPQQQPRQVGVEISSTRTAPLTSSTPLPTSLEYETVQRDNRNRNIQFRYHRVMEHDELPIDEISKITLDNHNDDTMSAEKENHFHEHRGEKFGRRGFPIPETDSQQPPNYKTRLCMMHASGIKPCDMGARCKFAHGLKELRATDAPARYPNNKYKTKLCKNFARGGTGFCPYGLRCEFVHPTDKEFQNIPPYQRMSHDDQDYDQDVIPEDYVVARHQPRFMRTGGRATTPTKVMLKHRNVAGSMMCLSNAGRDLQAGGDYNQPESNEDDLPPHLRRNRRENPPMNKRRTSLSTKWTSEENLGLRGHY

[13] = target: T5, RNA-binding protein pos-1 (Caenorhabditis elegans, UniProt G5EF15); assay: inhibitors of POS-1/mex-3 RNA binding, dose response, biochemical, fluorescence polarization (AID 1964);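 note: purified POS-1 fused to maltose binding protein made in E. coli; potency of compounds blocking POS-1 binding to fluorescent RNA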
T5 sequence (G5EF15 whole entry): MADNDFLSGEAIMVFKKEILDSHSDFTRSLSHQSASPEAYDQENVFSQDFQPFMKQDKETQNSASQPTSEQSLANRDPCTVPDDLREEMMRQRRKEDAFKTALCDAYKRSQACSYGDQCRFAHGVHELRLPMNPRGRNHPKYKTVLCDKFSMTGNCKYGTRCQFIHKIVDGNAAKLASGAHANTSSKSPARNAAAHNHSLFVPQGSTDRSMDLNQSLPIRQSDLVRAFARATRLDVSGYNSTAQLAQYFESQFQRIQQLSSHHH

Keap1/Nrf2 = Keap1/Nrf2 (Homo sapiens, UniProt Q14145); assay: Keap1-Nrf2 protein-protein interaction inhibitors, dose response, biochemical, fluorescence polarization, cherry-picked samples (AID 588683)
ORF 73 = target: T6, ORF 73 (Human herpesvirus 8, UniProt O40947); assay: inhibitors of C-LANA binding to LBS DNA, dose response, biochemical, fluorescence polarization, cherry-picked samples (AID 504725); set-up: species or system Human gammaherpesvirus 8;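 note: fluorescence polarization of a labeled DNA duplex reporting LANA DNA binding; potency is for inhibitors that block LANA binding to the DNA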
T6 sequence (O40947 whole entry): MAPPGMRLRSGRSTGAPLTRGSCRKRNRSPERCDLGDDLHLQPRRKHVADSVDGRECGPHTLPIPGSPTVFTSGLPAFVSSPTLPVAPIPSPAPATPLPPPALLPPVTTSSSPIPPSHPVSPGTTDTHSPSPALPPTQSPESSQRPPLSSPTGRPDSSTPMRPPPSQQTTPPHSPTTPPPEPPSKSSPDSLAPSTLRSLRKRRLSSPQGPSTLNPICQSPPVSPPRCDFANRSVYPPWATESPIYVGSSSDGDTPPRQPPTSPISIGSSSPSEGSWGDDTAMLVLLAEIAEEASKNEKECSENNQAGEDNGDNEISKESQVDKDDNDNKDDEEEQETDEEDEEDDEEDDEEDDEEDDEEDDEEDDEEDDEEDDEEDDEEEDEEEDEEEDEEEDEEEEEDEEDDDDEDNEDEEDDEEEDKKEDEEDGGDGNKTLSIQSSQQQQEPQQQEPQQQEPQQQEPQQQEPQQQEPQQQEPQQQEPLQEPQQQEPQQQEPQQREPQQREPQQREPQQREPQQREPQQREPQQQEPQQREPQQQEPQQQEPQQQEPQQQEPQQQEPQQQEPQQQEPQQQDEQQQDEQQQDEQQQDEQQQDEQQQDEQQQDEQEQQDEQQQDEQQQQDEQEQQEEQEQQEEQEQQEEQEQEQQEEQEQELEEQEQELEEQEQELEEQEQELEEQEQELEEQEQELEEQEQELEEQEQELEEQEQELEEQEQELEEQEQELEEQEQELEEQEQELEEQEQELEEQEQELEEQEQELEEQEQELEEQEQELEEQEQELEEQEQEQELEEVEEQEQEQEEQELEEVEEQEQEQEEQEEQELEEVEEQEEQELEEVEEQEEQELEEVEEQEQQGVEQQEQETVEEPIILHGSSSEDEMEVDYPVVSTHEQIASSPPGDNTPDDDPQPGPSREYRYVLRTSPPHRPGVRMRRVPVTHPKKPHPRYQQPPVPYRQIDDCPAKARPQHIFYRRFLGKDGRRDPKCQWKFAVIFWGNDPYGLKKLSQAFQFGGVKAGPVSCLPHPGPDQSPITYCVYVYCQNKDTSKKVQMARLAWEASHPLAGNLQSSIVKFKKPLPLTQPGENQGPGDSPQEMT

[14] = target: UDP-galactopyranose mutase (Mycobacterium tuberculosis, UniProt P9WIQ1); assay: Inhibitors of Mycobacterium tuberculosis UDP-galactopyranose mutase (UGM) enzyme Measured in Biochemical System Using Plate Reader - 2105-02_Inhibitor_Dose_CherryPick_Activity. [Related pubchem assays (depositor defined):AID504439]
Chain of UDP-galactopyranose mutase (P9WIQ1 whole entry): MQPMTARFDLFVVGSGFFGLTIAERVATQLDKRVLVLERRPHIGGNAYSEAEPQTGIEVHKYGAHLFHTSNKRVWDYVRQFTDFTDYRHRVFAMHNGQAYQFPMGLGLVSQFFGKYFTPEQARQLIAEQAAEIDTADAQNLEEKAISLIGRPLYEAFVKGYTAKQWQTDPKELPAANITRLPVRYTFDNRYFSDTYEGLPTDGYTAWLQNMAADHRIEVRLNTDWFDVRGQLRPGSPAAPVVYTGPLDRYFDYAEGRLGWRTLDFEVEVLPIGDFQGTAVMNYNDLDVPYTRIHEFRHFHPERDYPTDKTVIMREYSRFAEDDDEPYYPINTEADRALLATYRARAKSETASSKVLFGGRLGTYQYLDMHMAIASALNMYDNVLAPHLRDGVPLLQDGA

Chain of 72 kDa type IV collagenase (P08253 whole entry): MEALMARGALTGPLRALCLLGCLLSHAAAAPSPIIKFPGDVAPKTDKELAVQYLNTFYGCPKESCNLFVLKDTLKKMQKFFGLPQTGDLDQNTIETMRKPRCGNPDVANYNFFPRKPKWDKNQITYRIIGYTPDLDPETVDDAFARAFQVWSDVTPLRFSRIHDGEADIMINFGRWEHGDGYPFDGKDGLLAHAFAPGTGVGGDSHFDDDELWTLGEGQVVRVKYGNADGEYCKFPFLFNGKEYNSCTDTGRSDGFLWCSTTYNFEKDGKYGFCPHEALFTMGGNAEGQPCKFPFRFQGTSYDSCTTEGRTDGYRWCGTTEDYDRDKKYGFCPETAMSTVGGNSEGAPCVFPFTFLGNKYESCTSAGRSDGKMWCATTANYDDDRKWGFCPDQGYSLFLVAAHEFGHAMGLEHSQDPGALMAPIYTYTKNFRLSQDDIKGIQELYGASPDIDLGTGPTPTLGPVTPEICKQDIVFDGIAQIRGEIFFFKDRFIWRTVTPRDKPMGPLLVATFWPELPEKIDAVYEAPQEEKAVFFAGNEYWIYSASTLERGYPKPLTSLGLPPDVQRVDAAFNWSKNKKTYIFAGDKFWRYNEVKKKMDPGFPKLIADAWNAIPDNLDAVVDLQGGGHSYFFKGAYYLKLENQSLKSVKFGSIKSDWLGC
Chain of Keap1/Nrf2 (Q16236 whole entry): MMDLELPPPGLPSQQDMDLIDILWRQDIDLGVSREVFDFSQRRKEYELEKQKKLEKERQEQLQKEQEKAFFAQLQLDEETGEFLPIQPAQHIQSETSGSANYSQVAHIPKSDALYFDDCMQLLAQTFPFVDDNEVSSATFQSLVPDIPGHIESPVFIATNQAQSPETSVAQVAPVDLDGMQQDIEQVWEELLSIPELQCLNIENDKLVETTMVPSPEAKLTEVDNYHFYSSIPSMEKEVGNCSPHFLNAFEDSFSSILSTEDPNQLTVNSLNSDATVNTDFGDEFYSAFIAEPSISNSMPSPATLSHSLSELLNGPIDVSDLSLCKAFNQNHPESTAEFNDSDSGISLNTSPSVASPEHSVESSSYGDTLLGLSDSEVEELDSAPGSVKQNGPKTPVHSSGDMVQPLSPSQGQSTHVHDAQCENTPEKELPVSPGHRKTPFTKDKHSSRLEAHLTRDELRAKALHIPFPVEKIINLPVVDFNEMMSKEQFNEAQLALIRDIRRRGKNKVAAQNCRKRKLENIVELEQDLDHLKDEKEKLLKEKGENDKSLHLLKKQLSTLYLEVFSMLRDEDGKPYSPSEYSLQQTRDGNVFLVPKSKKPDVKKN
Chain of Keap1/Nrf2 (Q14145 whole entry): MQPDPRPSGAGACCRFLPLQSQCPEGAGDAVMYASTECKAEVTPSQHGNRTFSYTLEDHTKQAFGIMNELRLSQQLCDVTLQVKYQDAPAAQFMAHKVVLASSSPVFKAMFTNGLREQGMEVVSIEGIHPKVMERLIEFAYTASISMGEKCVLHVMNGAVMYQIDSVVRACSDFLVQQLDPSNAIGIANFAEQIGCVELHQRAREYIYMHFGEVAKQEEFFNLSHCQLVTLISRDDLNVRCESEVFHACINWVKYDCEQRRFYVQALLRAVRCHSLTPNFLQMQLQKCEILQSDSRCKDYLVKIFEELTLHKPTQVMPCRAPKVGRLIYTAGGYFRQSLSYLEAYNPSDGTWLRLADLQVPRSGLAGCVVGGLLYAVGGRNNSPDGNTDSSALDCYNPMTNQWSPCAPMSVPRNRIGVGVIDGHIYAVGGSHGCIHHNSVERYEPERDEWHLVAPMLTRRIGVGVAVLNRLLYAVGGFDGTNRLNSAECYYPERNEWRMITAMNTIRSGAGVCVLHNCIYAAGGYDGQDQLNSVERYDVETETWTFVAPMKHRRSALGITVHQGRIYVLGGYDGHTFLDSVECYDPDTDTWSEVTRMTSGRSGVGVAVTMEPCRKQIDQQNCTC
Chain of 26S proteasome non-ATPase regulatory subunit 14 (O00487 whole entry): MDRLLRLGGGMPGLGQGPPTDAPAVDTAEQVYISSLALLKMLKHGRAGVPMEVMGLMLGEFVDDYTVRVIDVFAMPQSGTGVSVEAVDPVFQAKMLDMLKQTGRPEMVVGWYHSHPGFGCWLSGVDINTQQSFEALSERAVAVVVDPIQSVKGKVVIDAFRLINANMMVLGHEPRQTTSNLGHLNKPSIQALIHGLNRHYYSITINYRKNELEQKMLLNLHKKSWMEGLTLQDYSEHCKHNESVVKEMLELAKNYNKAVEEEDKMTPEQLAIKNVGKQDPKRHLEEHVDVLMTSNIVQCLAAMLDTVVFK

| Structure (SMILES) | IC50 [1] | IC50 (Orexin receptor type 2 [2]) | IC50 (Orexin receptor type 2 [3]) | IC50 (CHO-K1) | IC50 [4] | IC50 [5] | EC50 (Insulin-degrading enzyme [6]) | EC50 (HEK293 [7]) | EC50 (Insulin-degrading enzyme [8]) | IC50 (HEK293 [9]) | further results |
| --- | --- | --- | --- | --- | --- | --- | --- | --- | --- | --- | --- |
| Cc1ccsc1/C=N/N=C1\C(=O)Nc2ccccc21 | > 49.7 µM (inactive) | > 50 µM (inactive) | > 88.8 µM (inactive) | 46.8 µM (inactive) | 8.44 µM (active) | 2.36 µM (active) |  |  |  |  |  |
| O=c1c2ccccc2nc2c3ccccc3c(NCc3ccccn3)nn12 | > 49.7 µM (inactive) | > 50 µM (inactive) | > 88.8 µM (inactive) | > 66.2 µM (inactive) | 16.7 µM (inactive) | 4.96 µM (active) |  |  |  |  |  |
| COc1cc(CNC2CCCC2)cc(OC)c1OC |  |  |  |  |  |  | > 54.7 µM (inactive) | > 54.7 µM (inactive) | > 54.7 µM (inactive) | > 89.1 µM (inactive) |  |
| Cc1cc(C)c2cc3c(N)c(C(=O)Nc4c(C)nc(O)nc4O)sc3nc2c1 |  |  |  |  |  |  |  |  |  |  | IC50 (Prothrombin): 15.5 µM (active); IC50 [10]: 13.2 µM (active); IC50 [11]: > 100 µM (inactive) |
| COc1ccc(NC(=O)NS(=O)(=O)c2ccc(C)cc2)cn1 |  |  |  |  |  |  | > 54.7 µM (inactive) | > 55.9 µM (inactive) | > 54.7 µM (inactive) | > 89.2 µM (inactive) | EC50 [12]: 2.38 µM (inconclusive); EC50 [13]: 2.37 µM (inconclusive); AC50 (Keap1/Nrf2): > 52 µM (inactive); AC50 (ORF 73): 87.5 µM (active); AC50 [14]: 90.9 µM (active) |
